Results reported in patent US12357631B2 (priority 2018, dated 2025).

Columns and labels:
Test in all cases: biochemical
Type in all cases: binding
PB2 CDlp7007 H3N2 = PB2 CDlp7007 H3N2 (Influenza A virus, UniProt P31345)
PB2 = PB2 (Influenza A virus, UniProt P03428)
PB2 CDlp7028 H3N2 = PB2 CDlp7028 H3N2 (Influenza A virus, UniProt P31345)
PB2 CDlp7026 H1N1 = PB2 CDlp7026 H1N1 (Influenza A virus, UniProt P03428)
Chain of PB2 CDlp7026 H1N1 (P03428 whole entry, looked up): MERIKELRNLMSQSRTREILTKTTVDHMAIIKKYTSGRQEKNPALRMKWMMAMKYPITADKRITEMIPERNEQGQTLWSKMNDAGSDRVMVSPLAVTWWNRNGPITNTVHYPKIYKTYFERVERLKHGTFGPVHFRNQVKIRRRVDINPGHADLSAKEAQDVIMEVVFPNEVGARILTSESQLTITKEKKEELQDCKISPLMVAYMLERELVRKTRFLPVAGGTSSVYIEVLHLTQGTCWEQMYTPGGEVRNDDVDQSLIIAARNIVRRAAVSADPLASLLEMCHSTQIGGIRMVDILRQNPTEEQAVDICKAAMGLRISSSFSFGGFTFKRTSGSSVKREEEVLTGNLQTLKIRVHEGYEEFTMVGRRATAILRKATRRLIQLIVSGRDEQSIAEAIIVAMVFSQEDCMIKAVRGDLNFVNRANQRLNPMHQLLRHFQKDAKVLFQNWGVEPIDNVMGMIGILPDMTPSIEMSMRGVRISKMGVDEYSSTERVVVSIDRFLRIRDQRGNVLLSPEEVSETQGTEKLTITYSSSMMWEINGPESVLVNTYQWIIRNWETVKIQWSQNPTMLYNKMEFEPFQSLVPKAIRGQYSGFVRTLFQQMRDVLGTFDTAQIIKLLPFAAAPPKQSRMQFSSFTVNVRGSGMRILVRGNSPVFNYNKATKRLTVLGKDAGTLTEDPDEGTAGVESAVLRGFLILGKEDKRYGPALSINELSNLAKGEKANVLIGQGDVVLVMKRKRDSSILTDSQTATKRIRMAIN

Chain of PB2 (P03428 whole entry, looked up): as above
Chain of PB2 CDlp7007 H3N2 (P31345 whole entry, looked up): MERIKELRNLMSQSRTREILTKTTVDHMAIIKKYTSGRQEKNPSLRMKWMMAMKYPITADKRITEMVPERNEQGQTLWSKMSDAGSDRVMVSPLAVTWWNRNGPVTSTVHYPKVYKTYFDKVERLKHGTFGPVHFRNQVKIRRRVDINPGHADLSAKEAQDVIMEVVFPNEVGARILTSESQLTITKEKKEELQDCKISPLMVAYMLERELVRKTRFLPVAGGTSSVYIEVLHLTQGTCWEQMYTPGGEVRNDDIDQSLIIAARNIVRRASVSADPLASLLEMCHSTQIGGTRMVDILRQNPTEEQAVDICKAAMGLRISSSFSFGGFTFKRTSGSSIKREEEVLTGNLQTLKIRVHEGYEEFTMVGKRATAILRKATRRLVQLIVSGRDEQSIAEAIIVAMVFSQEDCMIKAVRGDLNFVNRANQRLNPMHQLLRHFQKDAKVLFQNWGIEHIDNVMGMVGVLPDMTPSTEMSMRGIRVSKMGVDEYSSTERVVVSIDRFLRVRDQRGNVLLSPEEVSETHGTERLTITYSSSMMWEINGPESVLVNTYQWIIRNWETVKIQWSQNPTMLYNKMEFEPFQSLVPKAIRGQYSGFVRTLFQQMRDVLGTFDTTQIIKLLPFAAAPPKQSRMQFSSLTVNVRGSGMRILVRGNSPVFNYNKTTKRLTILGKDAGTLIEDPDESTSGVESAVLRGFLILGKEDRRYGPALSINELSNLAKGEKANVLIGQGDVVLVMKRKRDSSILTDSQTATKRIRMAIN
Chain of PB2 CDlp7028 H3N2 (P31345 whole entry, looked up): as above

Structure (SMILES): CCOCCOCCOCC(=O)N[C@@H]1CCC[C@H](Nc2nc(-c3c[nH]c4ncc(F)cc34)ncc2F)C1 [Compound A263]
- IC50 (PB2 CDlp7007 H3N2): 25 to 50 µM
- EC50 (PB2): 25 to 50 µM

Structure (SMILES): CCOCCOCCOCC(=O)N1CCC[C@H](Nc2nc(-c3c[nH]c4ncc(F)cc34)ncc2F)C1 [Compound C2]
- IC50 (PB2 CDlp7028 H3N2): 5 to 25 µM
- IC50 (PB2 CDlp7007 H3N2): 5 to 25 µM

Structure (SMILES): CCOCCOCCCCCN(C)C(=O)N[C@@H]1CCC[C@H](Nc2nc(-c3c[nH]c4ncc(F)cc34)ncc2F)C1 [Compound A181]
- IC50 (PB2 CDlp7028 H3N2): 25 to 50 µM
- IC50 (PB2 CDlp7007 H3N2): 50 to 100 µM

Structure (SMILES): CCNC(=O)OCc1ccnc(C(=O)N[C@@H]2CCC[C@H](Nc3nc(-c4c[nH]c5ncc(F)cc45)ncc3F)C2)c1 [Compound A70]
- IC50 (PB2 CDlp7028 H3N2): < 5 µM
- IC50 (PB2 CDlp7007 H3N2): 5 to 25 µM
- EC50 (PB2): < 5 µM
- IC50 (PB2 CDlp7026 H1N1): 5 to 25 µM

Structure (SMILES): CCOCCOCCOCCNC(=O)N[C@@H]1CCC[C@H](Nc2nc(-c3c[nH]c4ncc(F)cc34)ncc2F)C1 [Compound A164]
- IC50 (PB2 CDlp7007 H3N2): 25 to 50 µM
- EC50 (PB2): 25 to 50 µM

Structure (SMILES): CCOCCOCCCCC(=O)N[C@@H]1CCC[C@H](Nc2nc(-c3c[nH]c4ncc(F)cc34)ncc2F)C1 [Compound A270]
- IC50 (PB2 CDlp7028 H3N2): > 100 µM
- IC50 (PB2 CDlp7007 H3N2): > 100 µM

Structure (SMILES): O=C(COCCOCCOCCO)N1CCC[C@H](Nc2nc(-c3c[nH]c4ncc(F)cc34)ncc2F)C1 [Compound C1]
- IC50 (PB2 CDlp7028 H3N2): 5 to 25 µM
- IC50 (PB2 CDlp7007 H3N2): 5 to 25 µM

Structure (SMILES): O=C(N[C@H]1CCC[C@@H](Nc2nc(-c3c[nH]c4ncc(F)cc34)ncc2F)C1)c1cc(COCCCCCOCc2ccncc2)ccn1 [Compound A103]
- EC50 (PB2): > 100 µM

Structure (SMILES): C[C@@H](NC(=O)OCc1ccnc(C(=O)N[C@@H]2CCC[C@H](Nc3nc(-c4c[nH]c5ncc(F)cc45)ncc3F)C2)c1)C(=O)O [Compound A141]
- EC50 (PB2): < 5 µM

Structure (SMILES): O=C(CNC(=O)OCc1ccnc(C(=O)N[C@H]2CCC[C@@H](Nc3nc(-c4c[nH]c5ncc(F)cc45)ncc3F)C2)c1)Nc1ccccc1C(=O)O [Compound A129]
- EC50 (PB2): < 5 µM

Structure (SMILES): CCOCCOCCCCCN(CC)C(=O)N[C@H]1CCC[C@@H](Nc2nc(-c3c[nH]c4ncc(F)cc34)ncc2F)C1 [Compound A228]
- EC50 (PB2): 50 to 100 µM

Structure (SMILES): CCCOCCOCCCCN(C)C(=O)N[C@H]1CCC[C@@H](Nc2nc(-c3c[nH]c4ncc(F)cc34)ncc2F)C1 [Compound A243]
- EC50 (PB2): > 100 µM

Structure (SMILES): O=C(NCC1COCCN1)OCc1ccnc(C(=O)N[C@H]2CCC[C@@H](Nc3nc(-c4c[nH]c5ncc(F)cc45)ncc3F)C2)c1 (some centres unmarked) [Compound A120]
- EC50 (PB2): 5 to 25 µM

Structure (SMILES): CCOc1ccc(CNC(=O)OC(C)c2ccnc(C(=O)N[C@H]3CCC[C@@H](Nc4nc(-c5c[nH]c6ncc(F)cc56)ncc4F)C3)c2)cc1 (some centres unmarked) [Compound A139]
- EC50 (PB2): > 100 µM

Structure (SMILES): O=C(N[C@@H]1CCC[C@H](Nc2nc(-c3c[nH]c4ncc(F)cc34)ncc2F)C1)c1cc(COCCCCCOCc2ccc(F)cc2)ccn1 [Compound A95]
- EC50 (PB2): > 100 µM

Structure (SMILES): CCOCc1ccnc(C(=O)N[C@H]2CCC[C@@H](Nc3nc(-c4c[nH]c5ncc(F)cc45)ncc3F)C2)c1 [Compound A43]
- EC50 (PB2): 5 to 25 µM

Structure (SMILES): O=C(N[C@H]1CCC[C@@H](Nc2nc(-c3c[nH]c4ncc(F)cc34)ncc2F)C1)c1cc(CC(O)CO)ccn1 (some centres unmarked) [Compound A50]
- EC50 (PB2): < 5 µM

Structure (SMILES): CCCOCCCCCCCN(C)C(=O)N[C@@H]1CCC[C@H](Nc2nc(-c3c[nH]c4ncc(F)cc34)ncc2F)C1 [Compound A235]
- EC50 (PB2): 50 to 100 µM

Structure (SMILES): CCOCCOCCCCCN(Cc1ccccn1)C(=O)N[C@@H]1CCC[C@H](Nc2nc(-c3c[nH]c4ncc(F)cc34)ncc2F)C1 [Compound A207]
- EC50 (PB2): 50 to 100 µM

Structure (SMILES): CCC(CC)OCCOCCCc1ccnc(C(=O)N[C@@H]2CCC[C@H](Nc3nc(-c4c[nH]c5ncc(F)cc45)ncc3F)C2)c1 [Compound A40]
- EC50 (PB2): > 100 µM

Structure (SMILES): CCOCCCc1ccnc(C(=O)N[C@@H]2CCC[C@H](Nc3nc(-c4c[nH]c5ncc(F)cc45)ncc3F)C2)c1 [Compound A38]
- EC50 (PB2): 25 to 50 µM

Structure (SMILES): O=C(NCc1ccc2c(c1)OCO2)OCc1ccnc(C(=O)N[C@H]2CCC[C@@H](Nc3nc(-c4c[nH]c5ncc(F)cc45)ncc3F)C2)c1 [Compound A130]
- EC50 (PB2): > 100 µM

Structure (SMILES): Cc1ccnc(C(=O)N[C@H]2CCC[C@@H](Nc3nc(-c4c[nH]c5ncc(F)cc45)ncc3F)C2)c1 [Compound A53]
- EC50 (PB2): 5 to 25 µM

Structure (SMILES): CCOCCOCCOCCNC(=O)N[C@@H]1CCC[C@H](Nc2nc(-c3c[nH]c4ncc(F)cc34)ncc2F)C1 [Compound A264]
- EC50 (PB2): > 100 µM

Structure (SMILES): COCCOCCCCCCN(C)C(=O)N[C@H]1CCC[C@@H](Nc2nc(-c3c[nH]c4ncc(F)cc34)ncc2F)C1 [Compound A244]
- EC50 (PB2): > 100 µM

Structure (SMILES): O=C(N[C@@H]1CCC[C@H](Nc2nc(-c3c[nH]c4ncc(F)cc34)ncc2F)C1)c1cc(CCCOCCOCCO)ccn1 [Compound A59]
- EC50 (PB2): < 5 µM

Structure (SMILES): O=C(O)CC(=O)N1CCC[C@H](Nc2nc(-c3c[nH]c4ncc(F)cc34)ncc2F)C1 [Compound C10]
- EC50 (PB2): < 5 µM

Structure (SMILES): CCOCCOCCCCCN(C(=O)N[C@@H]1CCC[C@H](Nc2nc(-c3c[nH]c4ncc(Cl)cc34)ncc2Cl)C1)C(C)C [Compound A249]
- EC50 (PB2): > 100 µM

Structure (SMILES): CCOc1ccccc1OCCCc1ccnc(C(=O)N[C@@H]2CCC[C@H](Nc3nc(-c4c[nH]c5ncc(F)cc45)ncc3F)C2)c1 [Compound A29]
- EC50 (PB2): > 100 µM

Structure (SMILES): CCCCOCCCCCCN(C)C(=O)N[C@@H]1CCC[C@H](Nc2nc(-c3c[nH]c4ncc(F)cc34)ncc2F)C1 [Compound A200]
- EC50 (PB2): > 100 µM

Structure (SMILES): Cc1cccc(C(=O)N[C@H]2CCC[C@@H](Nc3nc(-c4c[nH]c5ncc(F)cc45)ncc3F)C2)n1 [Compound A47]
- EC50 (PB2): 5 to 25 µM

Structure (SMILES): O=C(NCCOCC(F)(F)F)OCc1ccnc(C(=O)N[C@H]2CCC[C@@H](Nc3nc(-c4c[nH]c5ncc(F)cc45)ncc3F)C2)c1 [Compound A114]
- EC50 (PB2): 50 to 100 µM

Structure (SMILES): O=C(NCC(=O)N1CCOCC1)OCc1ccnc(C(=O)N[C@H]2CCC[C@@H](Nc3nc(-c4c[nH]c5ncc(F)cc45)ncc3F)C2)c1 [Compound A121]
- EC50 (PB2): 5 to 25 µM

Structure (SMILES): CCNC(=O)C(NC(=O)OCc1ccnc(C(=O)N[C@H]2CCC[C@@H](Nc3nc(-c4c[nH]c5ncc(F)cc45)ncc3F)C2)c1)C(C)(C)C (some centres unmarked) [Compound A149]
- EC50 (PB2): > 100 µM

Structure (SMILES): CC(NC(=O)OCc1ccnc(C(=O)N[C@H]2CCC[C@@H](Nc3nc(-c4c[nH]c5ncc(F)cc45)ncc3F)C2)c1)c1ccc(F)cc1 (some centres unmarked) [Compound A131]
- EC50 (PB2): > 100 µM

Structure (SMILES): CCCCCCOCCCCN(C)C(=O)N[C@H]1CCC[C@@H](Nc2nc(-c3c[nH]c4ncc(F)cc34)ncc2F)C1 [Compound A205]
- EC50 (PB2): > 100 µM

Structure (SMILES): CCOc1ccc(-c2ccnc(C(=O)N[C@@H]3CCC[C@H](Nc4nc(-c5c[nH]c6ncc(F)cc56)ncc4F)C3)c2)cc1 [Compound A62]
- EC50 (PB2): 5 to 25 µM

Structure (SMILES): CCOCCOCCOCCN(C)C(=O)N[C@@H]1CCC[C@H](Nc2nc(-c3c[nH]c4ncc(F)cc34)ncc2F)C1 [Compound A165]
- IC50 (PB2 CDlp7028 H3N2): 50 to 100 µM
- IC50 (PB2 CDlp7007 H3N2): 50 to 100 µM

Structure (SMILES): O=C(O)COCCNC(=O)OCc1ccnc(C(=O)N[C@@H]2CCC[C@H](Nc3nc(-c4c[nH]c5ncc(F)cc45)ncc3F)C2)c1 [Compound A118]
- EC50 (PB2): < 5 µM

Structure (SMILES): CCOCCOCCCCCN(Cc1ccccc1)C(=O)N[C@@H]1CCC[C@H](Nc2nc(-c3c[nH]c4ncc(F)cc34)ncc2F)C1 [Compound A182]
- EC50 (PB2): 50 to 100 µM

Structure (SMILES): Cc1ccc(CNC(=O)OCc2ccnc(C(=O)N[C@H]3CCC[C@@H](Nc4nc(-c5c[nH]c6ncc(F)cc56)ncc4F)C3)c2)cc1 [Compound A138]
- EC50 (PB2): > 100 µM

Structure (SMILES): CCCCCOCCOCC(=O)N[C@@H]1CCC[C@H](Nc2nc(-c3c[nH]c4ncc(F)cc34)ncc2F)C1 [Compound A272]
- EC50 (PB2): 50 to 100 µM

Structure (SMILES): Cc1cc(C(=O)N[C@H]2CCC[C@@H](Nc3nc(-c4c[nH]c5ncc(F)cc45)ncc3F)C2)ccn1 [Compound A51]
- EC50 (PB2): 5 to 25 µM
